Measurements: US7414049B2, “4-oxo-2,3,4,5-tetrahydro-benzo[b][1,4]diazepine derivatives” (Hoffmann-La Roche Inc., priority 2006, dated 2008)
≈ marks a conversion by molar mass, not a printed value.

Assays:
[1] = THESA assay, thermodynamic solubility; assay type: physicochemical; details: 22.5 °C, aqueous buffer, thermodynamic from solid, 50 mM phosphate buffer
Method: In addition, the compounds of the present invention have been tested in a THESA assay for determination of the thermodynamic solubility.
Approximately 2 mg of each compound was added in excess to a 50 mM phosphate buffer, at room temperature (22.5±1° C.). Each sample was placed in a microanalysis tube, which was sonicated for 1 h and agitated for 2 h. All suspensions were left overnight. At the next day all pHs were measured with a pH-meter and the samples filtered with a micronic filterplate (MSGVN2250) to separate the solid material from the solution. Then, all solutions were analyzed by HPLC. The calibration line was established by different concentrations of the compound in DMSO. From this regression equation the solubility of the compound was determined.

[2] = Microsome incubation, metabolic stability (mouse); assay type: in vitro ADME; details: for microsomal CLint at 10 μM: pH 7.4, liver microsomes, test compound 10 μM, 37° C., read-out: Intrinsic clearance (mouse)
[3] = Microsome incubation, metabolic stability (human); assay type: in vitro ADME; details: for microsomal CLint at 10 μM: pH 7.4, human liver microsomes 2.0 mg prot/mL, test compound 10 μM, 37° C., read-out: Intrinsic clearance (human)
Method: The compounds of formula I of the present invention are further characterized by high metabolic stability. This parameter is a prerequisite for good bioavailability, which is necessary to obtain medicaments with acceptable in-vivo activity. The metabolic stability has been tested by the following method:
Incubation mixtures consisted of liver microsomes (rat 1.0 mg prot/mL or human 2.0 mg prot/mL), test compound 10 μM, MgCl2 (3.3 mM), and an NADPH regenerating system consisting of glucose-6-phosphate dehydrogenase, NADPH and glucose-6-phosphate (equivalent to 1 mM NADPH) in a total volume of 1.0 mL of potassium phosphate buffer 100 mM pH 7.4. Reactions were initiated by addition of the NADPH regenerating system at 37° C. At the time of 1, 5, 9, 13, 17, 21, 25, and 29 min a 5 μL aliquot was directly analysed on a HPLC-MS/MS system consisting of a HP 1100 quaternary pump with degasser and a PE-Sciex API-2000 MS/MS spectrometer. The analytical column was a Waters Symmetry Shield RP8 (2.1*50 mm with a […] particle size). A polarity non linear gradient from phase A (MeOH/Ac. Form. 1% 20/80) to phase B (MeOH) was applied for a total run time of 2 minutes at a flow rate of 0.25 mL/min. The PE-Sciex API-2000 MS/MS spectrometer was used for detection of the parent compound. In vivo metabolic clearance was predicted according to published procedures [Houston, Biochem. Pharmacol. 47:1469-1479 (1994)]. In brief, the intrinsic clearance (Clearance, see table below) is calculated from the measured in vitro half-life taking into account incubation volume and microsomal protein used for the in vitro incubation. The intrinsic clearance is expressed in terms of μl/min/mg microsomal protein. For in vivo extrapolations, the hepatic extraction ratio (E) was calculated. Here it is reported the % MAB value which is equal to 1-E. The MAB (maximal achievable bioavailability) values express the maximal bioavailability that one can achieve with the given clearance values.

[4] = maximal achievable bioavailability = 1-E, extrapolated from intrinsic clearance
[5] = comparison table, room temperature

| solubility thermodynamic ([1]; room temperature (22.5±1° C.)) [µg/mL] | MAB (mouse) [2, 4] [%] | microsomal CLint at 10 μM [2] [µL/min/mg] | MAB (human) [3, 4] [%] | microsomal CLint at 10 μM [3] [µL/min/mg] | solubility thermodynamic [1, 5] [µg/mL] | MAB (mouse) ([2]; comparison table) [%] | MAB (human) ([3]; comparison table) [%] | SMILES |
| --- | --- | --- | --- | --- | --- | --- | --- | --- |
| 5180 (≈ 9320 µM) | 72.1 | 12.3 | 53.3 | 13.6 | – | – | – | CC(O)(C(=O)NCC(F)(F)C(F)(F)F)C(=O)N[C@H]1CN(C(=O)OCCO)c2ccccc2N(CCO)C1=O (single isomer, unassigned) [Example 14, (S)-5-(2-Hydroxy-ethyl)-3-[(S or R)-2-hydroxy-2-(2,2,3,3,3-pentafluoro-propylcarbamoyl)-propionylamino]-4-oxo-2,3,4,5-tetrahydro-benzo[b][1,4]diazepine-1-carboxylic acid 2-hydroxy-ethyl ester] |
| 124 (≈ 232 µM) | 25.0 | 94.9 | 49.4 | 15.9 | – | – | – | CC(O)(C(=O)NCC(F)(F)C(F)(F)F)C(=O)N[C@H]1CN(CCCC(F)(F)F)c2ccccc2NC1=O (single isomer, unassigned) [Example 6, (R or S)-2-Hydroxy-2-methyl-N-[(S)-4-oxo-1-(4,4,4-trifluoro-butyl)-2,3,4,5-tetrahydro-1H-benzo[b][1,4]diazepin-3-yl]-N′-(2,2,3,3,3-pentafluoro-propyl)-malonamide and (S or R)-2-Hydroxy-2-methyl-N-[(S)-4-oxo-1-(4,4,4-trifluoro-butyl)-2,3,4,5-tetrahydro-1H-benzo[b][1,4]diazepin-3-yl]-N′-(2,2,3,3,3-pentafluoro-propyl)-malonamide] |
| – | 74.9 | 10.6 | 100.0 | – | 37 (≈ 58.5 µM) | 74.9 | 100.0 | CC(O)(C(=O)NCC(F)(F)C(F)(F)F)C(=O)N[C@H]1CN(C(=O)OCC(F)(F)F)c2ccccc2N(CC(F)(F)F)C1=O (single isomer, unassigned) [Example 11] |
| – | – | – | – | – | < 1 | 21.8 | 43.1 | CC(C)(C(=O)NCC(F)(F)C(F)(F)F)C(=O)N[C@H]1CN(CC(F)(F)F)c2ccccc2NC1=O [reference compound] |
| 74 (≈ 134 µM) | 85.5 | 5.4 | 100.0 | – | – | – | – | CC(O)(C(=O)NCC(F)(F)C(F)(F)F)C(=O)N[C@H]1CN(C(=O)OCC(F)(F)F)c2ccccc2NC1=O (single isomer, unassigned) [Example 10, (S)-3-[(R or S)-2-Hydroxy-2-(2,2,3,3,3-pentafluoro-propylcarbamoyl)-propionylamino]-4-oxo-2,3,4,5-tetrahydro-benzo[b][1,4]diazepine-1-carboxylic acid 2,2,2-trifluoro-ethyl ester and (S)-3-[(S or R)-2-Hydroxy-2-(2,2,3,3,3-pentafluoro-propylcarbamoyl)-propionylamino]-4-oxo-2,3,4,5-tetrahydro-benzo[b][1,4]diazepine-1-carboxylic acid 2,2,2-trifluoro-ethyl ester] |
